Source: PMC8919667 (The Journal of Cell Biology, 2022)

T1: 6His-3FLAG-Cdc14 (Saccharomyces cerevisiae, UniProt Q00684)
T1 sequence (Q00684 1-551): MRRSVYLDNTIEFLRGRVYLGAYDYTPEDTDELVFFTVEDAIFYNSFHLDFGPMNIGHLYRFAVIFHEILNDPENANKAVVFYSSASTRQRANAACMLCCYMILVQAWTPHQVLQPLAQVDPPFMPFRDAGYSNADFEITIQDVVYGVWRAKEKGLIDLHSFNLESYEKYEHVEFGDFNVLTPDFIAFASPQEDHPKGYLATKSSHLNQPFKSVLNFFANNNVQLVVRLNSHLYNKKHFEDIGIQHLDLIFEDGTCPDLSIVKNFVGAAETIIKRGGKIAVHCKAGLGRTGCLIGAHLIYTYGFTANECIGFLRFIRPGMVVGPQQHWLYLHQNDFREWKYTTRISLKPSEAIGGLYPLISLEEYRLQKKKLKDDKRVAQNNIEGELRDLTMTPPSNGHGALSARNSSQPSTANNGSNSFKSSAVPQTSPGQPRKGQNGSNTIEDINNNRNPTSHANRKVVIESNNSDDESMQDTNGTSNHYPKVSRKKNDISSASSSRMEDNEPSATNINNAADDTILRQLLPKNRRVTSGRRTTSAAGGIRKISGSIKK

T2: 3HA-Atg13-p PxL2m (S. cerevisiae, UniProt Q06628 1-738, PxL2m (A207-IG), phosphorylated (Atg13-p); residues not stated)
T2 sequence (looked up): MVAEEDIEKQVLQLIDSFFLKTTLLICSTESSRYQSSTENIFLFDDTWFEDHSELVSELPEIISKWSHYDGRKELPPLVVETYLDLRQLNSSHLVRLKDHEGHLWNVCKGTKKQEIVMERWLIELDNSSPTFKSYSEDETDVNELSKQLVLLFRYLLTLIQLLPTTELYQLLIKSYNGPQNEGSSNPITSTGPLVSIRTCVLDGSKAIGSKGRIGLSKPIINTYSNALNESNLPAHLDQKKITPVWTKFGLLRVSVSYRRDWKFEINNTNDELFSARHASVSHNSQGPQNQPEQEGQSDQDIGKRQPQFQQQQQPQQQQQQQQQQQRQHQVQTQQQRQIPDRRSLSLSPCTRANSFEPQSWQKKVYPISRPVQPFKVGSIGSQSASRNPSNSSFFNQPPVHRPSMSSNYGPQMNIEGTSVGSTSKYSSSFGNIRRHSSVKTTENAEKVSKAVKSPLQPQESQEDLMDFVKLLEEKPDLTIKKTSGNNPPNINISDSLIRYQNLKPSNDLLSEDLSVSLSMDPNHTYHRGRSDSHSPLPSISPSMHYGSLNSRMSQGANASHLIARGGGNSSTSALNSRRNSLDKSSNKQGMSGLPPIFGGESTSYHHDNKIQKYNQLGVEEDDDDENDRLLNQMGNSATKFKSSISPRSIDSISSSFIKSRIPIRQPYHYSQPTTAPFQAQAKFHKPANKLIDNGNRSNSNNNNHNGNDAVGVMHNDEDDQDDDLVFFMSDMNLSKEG


What was measured:
6His-3FLAG-Cdc14 = molecular target: T1, 6His-3FLAG-Cdc14; assay: colorimetric p-nitrophenolate release, absorbance at […] nm; format: biochemical; conditions: 10 mM pNPP, 20 mM Tris pH 7.5, 4 mM MgCl2, 1 mM EGTA, room temperature
3HA-Atg13-p PxL2m = molecular target: T2, 3HA-Atg13-p PxL2m; assay: pull-down

Molecule | colorimetric p-nitrophenolate release, absorbance at 405 nm (6His-3FLAG-Cdc14) | binding result (3HA-Atg13-p PxL2m)
O=[N+]([O-])c1ccc(OP(=O)(O)O)cc1 [p-nitrophenyl phosphate] | 6His-3FLAG-Cdc14 exhibited concentration- and time-dependent phosphatase activity | 
6His-3FLAG-Cdc14-C283S (enzyme, S. cerevisiae, UniProt Q00684 1-551, looked up) MRRSVYLDNTIEFLRGRVYLGAYDYTPEDTDELVFFTVEDAIFYNSFHLDFGPMNIGHLYRFAVIFHEILNDPENANKAVVFYSSASTRQRANAACMLCCYMILVQAWTPHQVLQPLAQVDPPFMPFRDAGYSNADFEITIQDVVYGVWRAKEKGLIDLHSFNLESYEKYEHVEFGDFNVLTPDFIAFASPQEDHPKGYLATKSSHLNQPFKSVLNFFANNNVQLVVRLNSHLYNKKHFEDIGIQHLDLIFEDGTCPDLSIVKNFVGAAETIIKRGGKIAVHSKAGLGRTGCLIGAHLIYTYGFTANECIGFLRFIRPGMVVGPQQHWLYLHQNDFREWKYTTRISLKPSEAIGGLYPLISLEEYRLQKKKLKDDKRVAQNNIEGELRDLTMTPPSNGHGALSARNSSQPSTANNGSNSFKSSAVPQTSPGQPRKGQNGSNTIEDINNNRNPTSHANRKVVIESNNSDDESMQDTNGTSNHYPKVSRKKNDISSASSSRMEDNEPSATNINNAADDTILRQLLPKNRRVTSGRRTTSAAGGIRKISGSIKK |  | binds
